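Values below derive from 48-hour exposures of cells grown in 96-well plates, with endpoints linearly interpolated between the two concentrations bracketing the appropriate inhibition level. GI50 marks 50% less growth. TGI: total growth inhibition.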
How the values were obtained:
Test in all cases: NCI tumour cell line growth inhibition, 48 h
HT29 colon = system: HT29 colon
M19-MEL melanoma = system: M19-MEL melanoma
COLO 205 colon = system: COLO 205 colon
DMS 273 small cell lung = system: DMS 273 small cell lung
U251 CNS = system: U251 CNS
HOP-62 NSCLC = system: HOP-62 NSCLC
HCT-116 colon = system: HCT-116 colon
MALME-3M melanoma = system: MALME-3M melanoma
OVCAR-4 ovarian = system: OVCAR-4 ovarian
SK-MEL-28 melanoma = system: SK-MEL-28 melanoma

Compound | TGI (HT29 colon) | TGI (M19-MEL melanoma) | TGI (COLO 205 colon) | TGI (DMS 273 small cell lung) | TGI (U251 CNS) | TGI (HOP-62 NSCLC) | TGI (HCT-116 colon) | TGI (MALME-3M melanoma) | TGI (OVCAR-4 ovarian) | TGI (SK-MEL-28 melanoma) | GI50 (HT29 colon) | GI50 (COLO 205 colon) | GI50 (U251 CNS) | GI50 (SK-MEL-28 melanoma) | GI50 (HOP-62 NSCLC) | GI50 (HCT-116 colon) | GI50 (MALME-3M melanoma) | GI50 (OVCAR-4 ovarian)
Cc1c(C(Cc2ccccc2N(C)C(=O)/C=C\C(=O)O)c2c[nH]c3ccccc23)c2ccccc2n1C (configuration not stated) | 30.8 µM | 30.5 µM | 29.6 µM | 32.7 µM | 30.3 µM | 32.5 µM | 28.4 µM | 22.4 µM | 55.5 µM |  |  |  |  |  |  |  |  | 
NC1=C(O)c2cccc3cccc(c23)C1=O | > 100 µM | > 100 µM | > 100 µM | > 100 µM | > 100 µM |  | > 100 µM | > 100 µM | > 100 µM | > 100 µM |  |  |  |  |  |  |  | 
O=C(O)/C=C/c1ccc(O)c(O)c1 | > 100 µM | > 100 µM | > 100 µM | > 100 µM | > 100 µM | > 100 µM | > 100 µM | > 100 µM | > 100 µM | > 100 µM |  |  |  |  |  |  |  | 
Cc1cc(N(CCC#N)CCC#N)ccc1/C=C(\NC(=O)/C=C/c1ccccc1)C(=O)N=[N+]=[N-] | > 100 µM | > 100 µM | > 100 µM | > 100 µM | > 100 µM | > 100 µM | > 100 µM | > 100 µM |  | > 100 µM |  |  |  |  |  |  |  | 
O=C1C2C3CC4C5C3C1C5C1(SCCS1)C42 (configuration not stated) |  | > 100 µM | > 100 µM | > 100 µM | > 100 µM | > 100 µM | > 100 µM | > 100 µM | > 100 µM | > 100 µM |  |  |  |  |  |  |  | 
C/C(=N/NC(=O)c1ccccc1S(N)(=O)=O)C(CN1CCCCC1)C(C1=C(O)C2C=CC=CC2OC1=O)c1ccccc1 (configuration not stated) | > 100 µM | > 100 µM | 41.3 µM |  | > 100 µM | > 100 µM | > 100 µM | > 100 µM | > 100 µM |  |  |  |  |  |  |  |  | 
COc1nc(NC2OC(COC(C)=O)C(OC(C)=O)C(OC(C)=O)C2OC(C)=O)c(N=CC=Nc2c(NC3OC(COC(C)=O)C(OC(C)=O)C(OC(C)=O)C3OC(C)=O)nc(OC)[nH]c2=O)c(=O)[nH]1 (configuration not stated) | > 100 µM | > 100 µM | > 100 µM |  | > 100 µM | > 100 µM | > 100 µM | > 100 µM | > 100 µM | > 100 µM |  |  |  |  |  |  |  | 
COC(=O)C(=O)C(C#N)c1nc2ccccc2s1 (configuration not stated) | > 100 µM | > 100 µM | > 100 µM | > 100 µM |  | > 100 µM | > 100 µM | > 100 µM | > 100 µM | > 100 µM |  |  |  |  |  |  |  | 
O=C(Cc1ccccc1)NN1C(=O)C(Cl)C1c1ccc(Cl)cc1 (configuration not stated) | > 100 µM |  | > 100 µM | > 100 µM | > 100 µM | > 100 µM | > 100 µM | > 100 µM | > 100 µM | > 100 µM |  |  |  |  |  |  |  | 
COc1cc2c(c3oc(-c4ccc(O)cc4)c(O)c(=O)c13)CCC(C)(C)O2 | 10.9 µM |  | 5.02 µM |  | 0.8 µM | 0.165 µM | 0.372 µM | > 100 µM | 2.88 µM | 0.93 µM | 3.12 µM | 2180 nM | 107 nM | 210 nM | 71.2 nM | 172 nM | 1420 nM | 900 nM
Cn1cc(-c2ccc3nc(-c4ccc(CC(=O)Nc5cc(C(C)(C)C)no5)cc4)cnc3c2)cn1 | > 3 µM |  | > 3 µM |  | > 3 µM | > 3 µM | > 3 µM | > 0.694 µM | > 3 µM | > 3 µM | 0.0859 µM |  | 29.8 nM | 104 nM | 46.5 nM | 29 nM | 21 nM | 19.3 nM
O=C(/C=C\c1ccc(O)c(O)c1)c1ccccc1O | 47.1 µM |  | 21.6 µM |  | 33.1 µM | 50.8 µM | 24.9 µM | 32.5 µM | 98.7 µM | 42.7 µM | 18.4 µM | 8990 nM | 7950 nM | 15100 nM | 12600 nM | 11900 nM | 11400 nM | 8730 nM
COc1ccc(C2=NN(C(N)=S)C(c3ccc4c(c3)OCO4)C2)cc1 (configuration not stated) | > 100 µM |  | 11.5 µM |  | 19.6 µM | > 100 µM | 22.9 µM | 43.9 µM | > 100 µM | > 100 µM | 3.13 µM | 3390 nM | 3050 nM | 9330 nM | 3560 nM | 2960 nM | 3620 nM | 3400 nM
C[C@@H]1CN2[C@H]3[C@@H]1CC[C@]31CCC(=O)O[C@]1(C)[C@H]1CC[C@H]3CCC=C3[C@@H]12 | > 30 µM |  | > 30 µM |  | > 30 µM | > 30 µM | > 30 µM | > 30 µM | > 30 µM | > 30 µM | > 30 µM | > 30000 nM | > 30000 nM | > 30000 nM | > 30000 nM | > 30000 nM | > 30000 nM | > 30000 nM
NS(=O)(=O)c1ccc(N(/C=C/C(=O)C(F)(F)F)CC(=O)c2ccc(F)cc2)cc1 | > 100 µM |  | 41.6 µM |  | 48.9 µM | > 100 µM | > 100 µM | 78.9 µM | > 100 µM | > 100 µM | 35.2 µM | 20500 nM | 18400 nM | 43700 nM | 65400 nM | 22500 nM | 43100 nM | 57100 nM
CCCCn1c(=O)[nH]c(N)c([C@@H]2c3c([nH]c(=O)n(CCCC)c3=O)Oc3ccc4ccccc4c32)c1=O | 4.73 µM |  | 4.03 µM |  | 3.32 µM | 4.72 µM | 3.02 µM | 7.02 µM | 10.8 µM | 6.23 µM | 2.46 µM | 2000 nM | 1730 nM | 2520 nM | 1500 nM | 1530 nM | 2340 nM | 2260 nM
O=C1C=C(Nc2ccccc2)c2ccccc2C1=O | 5.17 µM |  | 3.61 µM |  | 4.6 µM | 2.83 µM | 5.49 µM | 3.07 µM | 3.53 µM | 4.46 µM | 2.35 µM | 1960 nM | 1800 nM | 2130 nM | 1170 nM | 2150 nM | 1640 nM | 1680 nM
N#CCCNc1nonc1-c1nc2ccccc2n1CC(=O)c1ccc(N)cc1 | 0.0701 µM |  | 0.0477 µM |  | > 100 µM | > 100 µM |  | > 100 µM | > 100 µM | > 100 µM | 0.0226 µM | 22 nM | 36 nM | 35.1 nM | 43.2 nM | 28.5 nM |  | 1880 nM
